Measured values: patent publication US20170226507A1, “COORDINATE CONTROL OF PATHOGENIC SIGNALING BY THE MIR-130/301 FAMILY IN PULMONARY HYPERTENSION AND FIBROPROLIFERATIVE DISEASES” (The Brigham and Women's Hospital, Inc., priority 2014, published 2017)

Key:
PASMCs = test: Caspase 3/7 assay, PASMCs; format: cell-based, human
Experimental: Caspase 3,7 activity was quantified using the Caspase-Glo 3/7 Assay (Promega), according to manufacturer's instructions. Briefly, cells were plated in triplicate in 96-well plates and transfected with the appropriate oligonucleotide. Forty-eight hours after transfection, cells were cultured in the presence or absence of serum for twenty-four hours. Cells were then incubated for 1 h with the caspase substrates, and luminescence was quantified.

PAAFs = PAAFs in soft or stiff matrix: fibrotic gene expression, immunoblot, collagen secretion; format: cell-based, human; details: PAAFs
Experimental: Cell Culture and Reagents: Primary human pulmonary arterial adventitial fibroblast cells (PAAFs) were purchased and propagated in FGM cell culture media (Lonza). Experiments were performed at passages 3 to 6. Primary human pulmonary fibroblast cells (PFs) were purchased and propagated in FGM cell culture media (Lonza). Primary human pulmonary arterial endothelial cells (PAECs) were purchased and propagated in EGM-2 cell culture media (Lonza). Experiments were performed at passages 3 to 6. Primary human pulmonary arterial smooth muscle cells (PASMCs) were purchased and propagated in SmGM-2 cell culture media (Lonza). Experiments were performed at passages 3 to 9. HEK293T cells (American Type Culture Collection) were used and cultivated in DMEM containing 10% fetal bovine serum (FBS). Cells were propagated in coated collagen plastic (50 ug/mL) at 37° C. in a humidified 5% CO2 atmosphere. Collagen-coated hydrogel were purchased.
3D cell culture: Protocol was adapted from previously published protocol (Aragona M et al, 2013 Cell). Cells were embedded in a mixture of Growth Factor Reduced Matrigel (BD Biosciences) and Collagen-I (BD Biosciencres). Collagen-I solution was neutralized on ice with 0.1M NaOH in PBS and adjusted with 0.1N HCl to bring the pH of the solution to 7.5. The Collagen-I solution was then mixed on ice with Matrigel to obtain a final concentration of 1.2 mg/ml (soft matrices) or 3 mg/ml (stiff matrices). Cells were trypsinized, counted, resuspended in growth medium; then, 1 volume of cells was mixed with 1 volume of the ECM mix. 6-well plated were precoated with 1 ml of cellfree 50% medium/50% ECM, and left in the incubator until gelled; then, cells were seeded in drop on top of the pregelled ECM. After gelling, wells were supplemented with normal growth medium, which was changed every 2 days during the experiments.
Oligonucleotides and Transfection: Pre-miRNA oligonucleotides (pre-miR-130a, negative control pre-miR-NC1 and premiR-NC2) and custom designed tiny LNA oligonucleotides (tiny-130: 5′-[…]-3′ (SEQ ID NO: 52), and tiny-NC 5′-[…]-3′ (SEQ ID NO: 54)) were purchased from Life Technologies/Ambion and Exiqon, respectively. siRNAs for PPARγ and OCT4/POU5F1 were purchased from Santa Cruz Biotechnology. siRNA for TIMP2 was purchased from Life Technologies. On Target Plus siRNAs for YAP1, TAZ (WWTR1), LRP8 and scrambled control were purchased from ThermoScientific/Dhermacon. PAAF, PF, PAEC and PASMC were plated in collagen-coated dish (50 ug/mL) and transfected 24 h later at 70-80% confluence using pre-miRNA (5 nM), tiny-LNA (20 nM) or siRNA (25 nM) and Lipofectamine 2000 reagent (Life Technologies), according to the manufacturers' instructions. 8 hours after transfection cells were trypsinized and re-plated in the different hydrogel/3D-matrix.
Primary human pulmonary arterial adventitial fibroblast cells (PAAFs) were purchased (ScienCell Research Laboratories) and grown in FGM cell culture media (Lonza). Experiments were performed at passages 3 to 6. Primary human pulmonary arterial endothelial cells (PAECs) were grown in EGM-2 cell culture media (Lonza), and experiments were performed at passages 3 to 6. Primary human pulmonary arterial smooth muscle cells (PASMCs) were cultured in SmGM-2 cell culture media (Lonza), and experiments were performed at passages 3 to 9. HEK293T cells (American Type Culture Collection) were cultivated in DMEM containing 10% fetal bovine serum (FBS). […]

## tiny-LNA-130: fully LNA-modified tiny LNA oligonucleotide 5′-ATTGCACT-3′ (SEQ ID NO: 3) complementary to the seed region of the miR-130/301 family (all LNA, backbone and methylation of C not given here)
PASMCs; 24 h serum deprivation
  caspase 3/7 activity: no significant modulation
PASMCs; serum-replete conditions
  caspase 3/7 activity: No significant modulation
PAAFs
  collagen content of conditioned media (collagen secretion): decreased
PAAFs; immunoblot, tiny-LNA-130 in stiff conditions
  ApoE: increased
PAAFs; mimic in soft matrix, tiny-LNA-130 in high ECM stiffness
  collagen transcripts, LOX and CTGF: decreased
